In ChEMBL document CHEMBL5260855, “Design, synthesis and biological evaluation of simplified analogues of MraY inhibitory natural product with rigid scaffold” (Bioorg Med Chem, 2021):
pIC50: −log10 of the molar value.

Assays:
[1] = Inhibition of bacterial MraY; design: species or system Bacteria
[2] = biological target: T1, Phospho-N-acetylmuramoyl-pentapeptide-transferase (Staphylococcus aureus, UniProt P0C1R8); assay: Inhibition of Staphylococcus aureus MraY using UDP-MurNAc-dansylpentapeptide as substrate incubated for 3 hrs by fluorescence based microplate reader analysis
T1 sequence (P0C1R8 whole entry): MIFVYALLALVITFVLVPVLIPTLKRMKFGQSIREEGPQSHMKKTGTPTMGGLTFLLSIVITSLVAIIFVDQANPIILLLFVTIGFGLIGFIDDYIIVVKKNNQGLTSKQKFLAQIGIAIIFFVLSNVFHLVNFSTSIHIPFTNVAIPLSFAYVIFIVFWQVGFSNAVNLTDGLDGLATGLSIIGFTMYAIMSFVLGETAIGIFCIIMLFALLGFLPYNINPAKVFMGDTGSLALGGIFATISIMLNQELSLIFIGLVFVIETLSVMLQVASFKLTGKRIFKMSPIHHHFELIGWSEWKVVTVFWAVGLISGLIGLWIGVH

[3] = biological target: T2, Phospho-N-acetylmuramoyl-pentapeptide-transferase (Bacillus subtilis (strain 168), UniProt Q03521); assay: Inhibition of Bacillus subtilis MraY
T2 sequence (Q03521 whole entry): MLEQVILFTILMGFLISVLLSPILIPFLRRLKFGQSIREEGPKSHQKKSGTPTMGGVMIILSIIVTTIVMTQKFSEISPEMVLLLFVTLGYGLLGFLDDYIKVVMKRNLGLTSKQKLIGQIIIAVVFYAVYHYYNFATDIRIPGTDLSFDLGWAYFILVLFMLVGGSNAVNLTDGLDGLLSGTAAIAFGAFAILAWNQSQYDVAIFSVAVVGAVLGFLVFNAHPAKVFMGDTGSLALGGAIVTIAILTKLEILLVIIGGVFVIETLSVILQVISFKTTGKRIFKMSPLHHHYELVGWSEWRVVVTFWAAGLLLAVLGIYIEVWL

## CCCCCCCCCCCCCCCCC[C@H]1CN[C@@H]([C@H](O[C@@H]2O[C@H](CN)[C@@H](O)[C@H]2O)[C@H]2O[C@@H](n3ccc(=O)[nH]c3=O)[C@H](O)[C@@H]2O)C(=O)N(C)[C@@H]1C(=O)O
[1]
  pIC50: 8.42

## C#C[C@H](O[C@@H]1O[C@H](CN)[C@@H](O)[C@H]1O)[C@H]1O[C@@H](n2ccc(=O)[nH]c2=O)[C@H](O)[C@@H]1O
[2]
  pIC50: 4.05

## NC[C@H]1O[C@@H](O[C@@H](C#Cc2ccccc2)[C@H]2O[C@@H](n3ccc(=O)[nH]c3=O)[C@H](O)[C@@H]2O)[C@H](O)[C@@H]1O
[2]
  pIC50: 5.70

## NC[C@H]1O[C@@H](O[C@@H](C#Cc2ccc(C(=O)O)cc2)[C@H]2O[C@@H](n3ccc(=O)[nH]c3=O)[C@H](O)[C@@H]2O)[C@H](O)[C@@H]1O
[2]
  pIC50: 5.36

## NC[C@H]1O[C@@H](O[C@@H](C#Cc2cccc(C(=O)O)c2)[C@H]2O[C@@H](n3ccc(=O)[nH]c3=O)[C@H](O)[C@@H]2O)[C@H](O)[C@@H]1O
[2]
  pIC50: 5.82

## NC[C@H]1O[C@@H](O[C@@H](C#Cc2cccc(NS(=O)(=O)c3ccccc3)c2)[C@H]2O[C@@H](n3ccc(=O)[nH]c3=O)[C@H](O)[C@@H]2O)[C@H](O)[C@@H]1O
[2]
  pIC50: 6.02

## NC[C@H]1O[C@@H](O[C@@H](C#Cc2cccc(C(=O)Nc3ccccc3)c2)[C@H]2O[C@@H](n3ccc(=O)[nH]c3=O)[C@H](O)[C@@H]2O)[C@H](O)[C@@H]1O
[2]
  pIC50: 5.96

## NC[C@H]1O[C@@H](O[C@@H](CCc2ccccc2)[C@H]2O[C@@H](n3ccc(=O)[nH]c3=O)[C@H](O)[C@@H]2O)[C@H](O)[C@@H]1O
[2]
  pIC50: 4.49

## NC[C@H]1O[C@@H](O[C@@H](C#Cc2ccccc2N)[C@H]2O[C@@H](n3ccc(=O)[nH]c3=O)[C@H](O)[C@@H]2O)[C@H](O)[C@@H]1O
[2]
  pIC50: 5.68

## Cc1ccccc1C#C[C@H](O[C@@H]1O[C@H](CN)[C@@H](O)[C@H]1O)[C@H]1O[C@@H](n2ccc(=O)[nH]c2=O)[C@H](O)[C@@H]1O
[2]
  pIC50: 5.70

## NC[C@H]1O[C@@H](O[C@@H](C#Cc2cccc(-c3ccccc3)c2)[C@H]2O[C@@H](n3ccc(=O)[nH]c3=O)[C@H](O)[C@@H]2O)[C@H](O)[C@@H]1O
[2]
  pIC50: 6.19

## CCCCCCCCCCCCCCCC[C@H](NC(C)=O)C(=O)NCCCN[C@H](C(=O)O)[C@H](O[C@@H]1O[C@H](CN)[C@@H](O)[C@H]1O)[C@H]1O[C@@H](n2ccc(=O)[nH]c2=O)[C@H](O)[C@@H]1O
[1]
  pIC50: 8.57

## NC[C@H]1O[C@@H](O[C@@H](C#Cc2cccc(NC(=O)c3ccccc3)c2)[C@H]2O[C@@H](n3ccc(=O)[nH]c3=O)[C@H](O)[C@@H]2O)[C@H](O)[C@@H]1O
[2]
  pIC50: 5.17

## NC[C@H]1O[C@@H](O[C@@H](C#Cc2ccc(NC(=O)c3ccccc3)cc2)[C@H]2O[C@@H](n3ccc(=O)[nH]c3=O)[C@H](O)[C@@H]2O)[C@H](O)[C@@H]1O
[2]
  pIC50: 5.85

## NC[C@H]1O[C@@H](O[C@@H](C#Cc2ccc(N)cc2)[C@H]2O[C@@H](n3ccc(=O)[nH]c3=O)[C@H](O)[C@@H]2O)[C@H](O)[C@@H]1O
[2]
  pIC50: 6.52

## Cc1cccc(C#C[C@H](O[C@@H]2O[C@H](CN)[C@@H](O)[C@H]2O)[C@H]2O[C@@H](n3ccc(=O)[nH]c3=O)[C@H](O)[C@@H]2O)c1
[2]
  pIC50: 5.85

## NC[C@H]1O[C@@H](O[C@@H](C#Cc2ccccc2C(=O)O)[C@H]2O[C@@H](n3ccc(=O)[nH]c3=O)[C@H](O)[C@@H]2O)[C@H](O)[C@@H]1O
[2]
  pIC50: 5.24

## NC[C@H]1O[C@@H](O[C@@H](C#Cc2ccc(C(=O)Nc3ccccc3)cc2)[C@H]2O[C@@H](n3ccc(=O)[nH]c3=O)[C@H](O)[C@@H]2O)[C@H](O)[C@@H]1O
[2]
  pIC50: 6.05

## NC[C@H]1O[C@@H](O[C@@H](c2cn(Cc3ccc(Cc4ccc(C(=O)c5ccccc5)cc4)cc3)nn2)[C@H]2O[C@@H](n3ccc(=O)[nH]c3=O)[C@H](O)[C@@H]2O)[C@H](O)[C@@H]1O
[3]
  pIC50: 4.30

## Cc1ccc(C#C[C@H](O[C@@H]2O[C@H](CN)[C@@H](O)[C@H]2O)[C@H]2O[C@@H](n3ccc(=O)[nH]c3=O)[C@H](O)[C@@H]2O)cc1
[2]
  pIC50: 5.89

## NC[C@H]1O[C@@H](O[C@@H](C#Cc2ccc(-c3ccccc3)cc2)[C@H]2O[C@@H](n3ccc(=O)[nH]c3=O)[C@H](O)[C@@H]2O)[C@H](O)[C@@H]1O
[2]
  pIC50: 6.23

## NC[C@H]1O[C@@H](O[C@@H](C#Cc2cccc(N)c2)[C@H]2O[C@@H](n3ccc(=O)[nH]c3=O)[C@H](O)[C@@H]2O)[C@H](O)[C@@H]1O
[2]
  pIC50: 5.74

## NC[C@H]1O[C@@H](O[C@@H](C#Cc2ccc(NS(=O)(=O)c3ccccc3)cc2)[C@H]2O[C@@H](n3ccc(=O)[nH]c3=O)[C@H](O)[C@@H]2O)[C@H](O)[C@@H]1O
[2]
  pIC50: 6.00

## CC(C)C[C@H](NC(=O)[C@@H](NC(=O)N[C@H](C(=O)O)C(C)C)[C@@H]1CCNC(=N)N1)C(=O)NCCCN[C@H](C(=O)O)[C@H](O[C@@H]1O[C@H](CN)[C@@H](O)[C@H]1O)[C@H]1O[C@@H](n2ccc(=O)[nH]c2=O)[C@H](O)[C@@H]1O [MURAMYCIN D2]
[1]
  pIC50: 7.60
